Test system: hypertriglyceridemic patients with cardiovascular disease or at high risk for cardiovascular disease
Test: REDUCE-IT: electrocardiograms, vital signs (blood pressure, pulse), weight and waist circumference
Assay type: in vivo, human
Procedure: Blood pressure was measured using a standardized process: • Patient sat for ≥5 minutes with feet flat on the floor and measurement arm supported so that the midpoint of the manometer cuff was at heart level; and • Used a mercury sphygmomanometer or automatic blood pressure device with an appropriately sized cuff with the bladder centered over the brachial artery.
Blood pressure was recorded to the nearest 2 mmHg mark on the manometer or to the nearest whole number on an automatic device. A blood pressure reading was repeated 1 to 2 minutes later, and the second reading recorded to the nearest 2 mmHg mark.
Height, Weight and Body Mass Index: Height and weight were measured. Measurement of weight was performed with the patient dressed in indoor clothing, with shoes removed, and bladder empty.
Waist Circumference: Waist circumference was measured with a tape measure, as follows: Start at the top of the hip bone then bring the tape measure all the way around—level with the navel. Make sure the tape measure is snug, but without compressing the skin, and that it is parallel with the floor. Patients should not have held their breath while measuring waist circumference.
12-Lead Electrocardiogram (ECG): ECGs (standard 12-lead) were obtained annually. Site personnel made every attempt to perform a patient's ECG using the same equipment at each visit. ECGs were reviewed by the site for the detection of silent MI. Silent MIs were sent for event adjudication. All post-randomization ECGs (protocol-specified and other) were sent to the CEC for evaluation of silent MI. The 12-lead ECG parameters included Heart Rate (bpm), PR Interval (msec), QRS Interval (msec), QT Interval (msec), and QTc Interval (msec) were measured, and Overall Interpretation and Silent MI (Yes/No) were summarized for all patients at Screening (Visit 1), Randomization visit (Visit 2; Day 0) and all other follow-up visits including the last visit of the study.
A treatment-emergent PCS high value at any time was defined as a change from a value less than or equal to the defined PCS value at baseline to a PCS high value at any post-baseline measurement. A treatment-emergent PCS low value at any time was defined as a change from a value greater than or equal to the lower PCS value at baseline to a PCS low value at any post-baseline measurement.
As an additional exploratory analysis, the relationship between post-baseline biomarker values and treatment effects with the primary and key secondary endpoints were assessed by adding biomarker values (for example, at 4 months, or at 1 year, etc.) as time-dependent covariates in the Cox proportional hazards model. Diagnostic plots for the proportional hazard's assumption was evaluated. Weight was measured at the screening visit and at all follow-up visits, including the last visit of the study. Waist circumference was measured at the randomization visit (Visit 2; Day 0), Visit 5 (Day 720) and the last visit of the study. Descriptive statistics were presented by visit and treatment group for baseline, post-treatment change from baseline, and the percent change from baseline. Analysis methods for repeated measurements were used to compare percent change from baseline between treatments.

[1] = Baseline (Visit 2), Safety population
[2] = Visit 9 (n = 8), Safety population
[3] = any post-baseline visit, 3683 patients with data
[4] = any post-baseline visit, 3823 patients with data
[5] = any post-baseline visit, 3834 patients with data
[6] = any post-baseline visit, 3983 patients with data

SMILES: CC/C=C\C/C=C\C/C=C\C/C=C\C/C=C\CCCC(=O)OCC [AMR101, eicosapentaenoic acid ethyl ester]
- Diastolic Blood Pressure, mean baseline value [1]: 78.1 mmHg
- ECG Heart Rate, mean baseline value [1]: 66.6 beats/minute
- Heart Rate (vital sign), mean baseline value [1]: 68.1 beats/minute
- PR Interval, mean baseline value [1]: 172.2 ms
- QTc Interval, mean baseline value [1]: 422.4 ms
- Systolic Blood Pressure, mean baseline value [1]: 132.6 mmHg
- Diastolic Blood Pressure, mean change from baseline (Last Visit, Safety population): −0.7 mmHg
- ECG Heart Rate, mean change from baseline (Last Visit, Safety population): 2.1 beats/minute
- Heart Rate (vital sign), mean change from baseline (Last Visit, Safety population): 1.7 beats/minute
- PR Interval, mean change from baseline (Last Visit, Safety population): 1.7 ms
- QTc Interval, mean change from baseline (Last Visit, Safety population): 5.0 ms
- Systolic Blood Pressure, mean change from baseline (Last Visit, Safety population): 0.9 mmHg
- ECG TEAE - ECG signs of myocardial ischemia, % patients (Safety population, N = 4089): (0.0) %
- ECG TEAE - ECG signs of myocardial ischemia, n patients (Safety population, N = 4089): 2
- ECG TEAE - Electrocardiogram PR prolongation, % patients (Safety population, N = 4089): (0.0) %
- ECG TEAE - Electrocardiogram PR prolongation, n patients (Safety population, N = 4089): 0
- ECG TEAE - Electrocardiogram Q wave abnormal, % patients (Safety population, N = 4089): (0.0) %
- ECG TEAE - Electrocardiogram Q wave abnormal, n patients (Safety population, N = 4089): 1
- ECG TEAE - Electrocardiogram QRS complex abnormal, % patients (Safety population, N = 4089): (0.0) %
- ECG TEAE - Electrocardiogram QRS complex abnormal, n patients (Safety population, N = 4089): 2
- ECG TEAE - Electrocardiogram QT prolonged, % patients (Safety population, N = 4089): (0.2) %
- ECG TEAE - Electrocardiogram QT prolonged, n patients (Safety population, N = 4089): 10
- ECG TEAE - Electrocardiogram ST segment abnormal, % patients (Safety population, N = 4089): (0.1) %
- ECG TEAE - Electrocardiogram ST segment abnormal, n patients (Safety population, N = 4089): 6
- ECG TEAE - Electrocardiogram ST segment depression, % patients (Safety population, N = 4089): (0.1) %
- ECG TEAE - Electrocardiogram ST segment depression, n patients (Safety population, N = 4089): 4
- ECG TEAE - Electrocardiogram ST-T change, % patients (Safety population, N = 4089): (0.0) %
- ECG TEAE - Electrocardiogram ST-T change, n patients (Safety population, N = 4089): 1
- ECG TEAE - Electrocardiogram ST-T segment abnormal, % patients (Safety population, N = 4089): (0.0) %
- ECG TEAE - Electrocardiogram ST-T segment abnormal, n patients (Safety population, N = 4089): 2
- ECG TEAE - Electrocardiogram T wave abnormal, % patients (Safety population, N = 4089): (0.1) %
- ECG TEAE - Electrocardiogram T wave abnormal, n patients (Safety population, N = 4089): 6
- ECG TEAE - Electrocardiogram T wave amplitude decreased, % patients (Safety population, N = 4089): (0.0) %
- ECG TEAE - Electrocardiogram T wave amplitude decreased, n patients (Safety population, N = 4089): 0
- ECG TEAE - Electrocardiogram T wave inversion, % patients (Safety population, N = 4089): (0.2) %
- ECG TEAE - Electrocardiogram T wave inversion, n patients (Safety population, N = 4089): 7
- ECG TEAE - Electrocardiogram T wave normal, % patients (Safety population, N = 4089): (0.0) %
- ECG TEAE - Electrocardiogram T wave normal, n patients (Safety population, N = 4089): 0
- ECG TEAE - Electrocardiogram abnormal, % patients (Safety population, N = 4089): (0.2) %
- ECG TEAE - Electrocardiogram abnormal, n patients (Safety population, N = 4089): 10
- ECG TEAE - Electrocardiogram change, % patients (Safety population, N = 4089): (0.1) %
- ECG TEAE - Electrocardiogram change, n patients (Safety population, N = 4089): 3
- ECG TEAE - Exercise electrocardiogram abnormal, % patients (Safety population, N = 4089): (0.0) %
- ECG TEAE - Exercise electrocardiogram abnormal, n patients (Safety population, N = 4089): 1
- Diastolic Blood Pressure, mean change from baseline (Visit 3, Safety population): 0.1 mmHg
- Heart Rate (vital sign), mean change from baseline (Visit 3, Safety population): 1.2 beats/minute
- Systolic Blood Pressure, mean change from baseline (Visit 3, Safety population): −0.5 mmHg
- Diastolic Blood Pressure, mean change from baseline (Visit 4, Safety population): −0.1 mmHg
- ECG Heart Rate, mean change from baseline (Visit 4, Safety population): 1.2 beats/minute
- Heart Rate (vital sign), mean change from baseline (Visit 4, Safety population): 0.9 beats/minute
- PR Interval, mean change from baseline (Visit 4, Safety population): -0.3 ms
- QTc Interval, mean change from baseline (Visit 4, Safety population): 1.8 ms
- Systolic Blood Pressure, mean change from baseline (Visit 4, Safety population): −0.2 mmHg
- Diastolic Blood Pressure, mean change from baseline (Visit 5, Safety population): −0.1 mmHg
- ECG Heart Rate, mean change from baseline (Visit 5, Safety population): 1.7 beats/minute
- Heart Rate (vital sign), mean change from baseline (Visit 5, Safety population): 1.3 beats/minute
- PR Interval, mean change from baseline (Visit 5, Safety population): 0.4 ms
- QTc Interval, mean change from baseline (Visit 5, Safety population): 2.8 ms
- Systolic Blood Pressure, mean change from baseline (Visit 5, Safety population): 0.5 mmHg
- Diastolic Blood Pressure, mean change from baseline (Visit 6, Safety population): −0.4 mmHg
- ECG Heart Rate, mean change from baseline (Visit 6, Safety population): 1.6 beats/minute
- Heart Rate (vital sign), mean change from baseline (Visit 6, Safety population): 1.4 beats/minute
- PR Interval, mean change from baseline (Visit 6, Safety population): 0.8 ms
- QTc Interval, mean change from baseline (Visit 6, Safety population): 3.7 ms
- Systolic Blood Pressure, mean change from baseline (Visit 6, Safety population): 0.9 mmHg
- Diastolic Blood Pressure, mean change from baseline (Visit 7, Safety population): −0.5 mmHg
- ECG Heart Rate, mean change from baseline (Visit 7, Safety population): 1.8 beats/minute
- Heart Rate (vital sign), mean change from baseline (Visit 7, Safety population): 1.5 beats/minute
- PR Interval, mean change from baseline (Visit 7, Safety population): 1.4 ms
- QTc Interval, mean change from baseline (Visit 7, Safety population): 5.0 ms
- Systolic Blood Pressure, mean change from baseline (Visit 7, Safety population): 0.8 mmHg
- Diastolic Blood Pressure, mean change from baseline (Visit 8, Safety population): −1.0 mmHg
- ECG Heart Rate, mean change from baseline (Visit 8, Safety population): 1.4 beats/minute
- Heart Rate (vital sign), mean change from baseline (Visit 8, Safety population): 0.9 beats/minute
- PR Interval, mean change from baseline (Visit 8, Safety population): 2.2 ms
- QTc Interval, mean change from baseline (Visit 8, Safety population): 6.6 ms
- Systolic Blood Pressure, mean change from baseline (Visit 8, Safety population): 0.4 mmHg
- PR Interval, mean change from baseline (Visit 9 (n = 5), Safety population): -21.2 ms
- ECG Heart Rate, mean change from baseline (Visit 9 (n = 7), Safety population): 7.6 beats/minute
- Diastolic Blood Pressure, mean change from baseline [2]: −2.7 mmHg
- Heart Rate (vital sign), mean change from baseline [2]: 2.8 beats/minute
- Systolic Blood Pressure, mean change from baseline [2]: −5.4 mmHg
- PCS ECG finding: PR Interval <120 msec, % patients [3]: (7.1) %
- PCS ECG finding: PR Interval <120 msec, n patients [3]: 261
- PCS ECG finding: PR Interval >120 msec and increase >20 msec from baseline, % patients [3]: (24.8) %
- PCS ECG finding: PR Interval >120 msec and increase >20 msec from baseline, n patients [3]: 913
- PCS ECG finding: QTc Interval >500 msec, % patients [4]: (5.4) %
- PCS ECG finding: QTc Interval >500 msec, n patients [4]: 208
- PCS ECG finding: QRS Interval >110 msec, % patients [5]: (29.3) %
- PCS ECG finding: QRS Interval >110 msec, n patients [5]: 1124
- Diastolic Blood Pressure Decrease of ≥10 mmHg, % patients [6]: (39.4) %
- Diastolic Blood Pressure Decrease of ≥10 mmHg, n patients [6]: 1569
- Diastolic Blood Pressure Increase of ≥10 mmHg, % patients [6]: (36.2) %
- Diastolic Blood Pressure Increase of ≥10 mmHg, n patients [6]: 1442
- Diastolic Blood Pressure PCS High ≥100 mmHg and increase of ≥10 mmHg, % patients [6]: (4.5) %
- Diastolic Blood Pressure PCS High ≥100 mmHg and increase of ≥10 mmHg, n patients [6]: 179
- Diastolic Blood Pressure PCS High ≥100 mmHg, % patients [6]: (5.6) %
- Diastolic Blood Pressure PCS High ≥100 mmHg, n patients [6]: 223
- Diastolic Blood Pressure PCS Low ≤50 mmHg and decrease of ≥10 mmHg, % patients [6]: (0.9) %
- Diastolic Blood Pressure PCS Low ≤50 mmHg and decrease of ≥10 mmHg, n patients [6]: 35
- Diastolic Blood Pressure PCS Low ≤50 mmHg, % patients [6]: (1.1) %
- Diastolic Blood Pressure PCS Low ≤50 mmHg, n patients [6]: 42
- Pulse Decrease of ≥15 beats/min, % patients [6]: (14.1) %
- Pulse Decrease of ≥15 beats/min, n patients [6]: 562
- Pulse Increase of ≥15 beats/min, % patients [6]: (27.4) %
- Pulse Increase of ≥15 beats/min, n patients [6]: 1092
- Pulse PCS High ≥90 beats/min and increase of ≥15 beats/min, % patients [6]: (9.3) %
- Pulse PCS High ≥90 beats/min and increase of ≥15 beats/min, n patients [6]: 370
- Pulse PCS High ≥90 beats/min, % patients [6]: (13.8) %
- Pulse PCS High ≥90 beats/min, n patients [6]: 551
- Pulse PCS Low ≤50 beats/min and decrease of ≥15 beats/min, % patients [6]: (1.7) %
- Pulse PCS Low ≤50 beats/min and decrease of ≥15 beats/min, n patients [6]: 68
- Pulse PCS Low ≤50 beats/min, % patients [6]: (7.4) %
- Pulse PCS Low ≤50 beats/min, n patients [6]: 293
- Systolic Blood Pressure Decrease of ≥20 mmHg, % patients [6]: (25.3) %
- Systolic Blood Pressure Decrease of ≥20 mmHg, n patients [6]: 1009
- Systolic Blood Pressure Increase of ≥20 mmHg, % patients [6]: (29.2) %
- Systolic Blood Pressure Increase of ≥20 mmHg, n patients [6]: 1163
- Systolic Blood Pressure PCS High ≥160 mmHg and increase of ≥20 mmHg, % patients [6]: (11.3) %
- Systolic Blood Pressure PCS High ≥160 mmHg and increase of ≥20 mmHg, n patients [6]: 450
- Systolic Blood Pressure PCS High ≥160 mmHg, % patients [6]: (18.0) %
- Systolic Blood Pressure PCS High ≥160 mmHg, n patients [6]: 715
- Systolic Blood Pressure PCS Low ≤90 mmHg and decrease of ≥20 mmHg, % patients [6]: (0.7) %
- Systolic Blood Pressure PCS Low ≤90 mmHg and decrease of ≥20 mmHg, n patients [6]: 27
- Systolic Blood Pressure PCS Low ≤90 mmHg, % patients [6]: (1.0) %
- Systolic Blood Pressure PCS Low ≤90 mmHg, n patients [6]: 40

— patent US12427134B2, “Methods of reducing the risk of cardiovascular events in a subject with atrial fibrillation and/or atrial flutter” (priority 2019, dated 2025)
